A short description of this assay: Sensory panel screening of natural coolants versus menthol in sugar solution (Example 1). Format: in vivo, human. To be noted: 100 ppm in 5% sugar solution, 10 mL held 10 s, panel N=6; for Cooling Relative to 100 ppm Menthol: 9-point scale, menthol fixed as 5.0. On the procedure:
100 ppm of naturally sourced menthyl lactate, menthyl succinate, and isopulegol were screened in 5% sugar solution for cooling and bitterness properties relative to 100 ppm menthol in 5% sucrose solution.
10 mL of each sample was orally evaluated by a panel (N=6) for 10 seconds, then expectorated. Cooling strength, flavor strength, and bitterness or off-taste was evaluated on a 9-point scale in comparison to 100 ppm menthol evaluated as a control, with 0 being the lowest and 9 being the highest measure on the scale. Subjects evaluated the coolant attributes at T0 (immediately after expectorating), 1, 2, 5 and 10 minute time points post expectoration.
Prior to the test, each subject calibrated their cooling and bitterness scale by performing the same evaluation on 10 mL of 100 ppm of L-menthol (prepared the same way as the natural coolants). The menthol solution was held in the mouth for 10 seconds as a calibration sample and the cooling strength and bitterness were fixed as 5.0 at the initial T0 time point.
Panelists were asked to rate the cooling and bitterness intensity of the compounds in solution, relative to the solution of 100 ppm of menthol, when tested in comparative screenings. The ratings are summarized in Table 1, showing the cooling and bitterness of the coolants compared to menthol.

Each structure is given as a SMILES string.

Regarding `CC1CCC(C(C)C)C(O)C1` (centres unmarked) [Menthol (Control), menthol, reference compound], the “Bitterness Relative to 100 ppm Menthol” value was found to be 1.0 and the “Cooling Relative to 100 ppm Menthol” value was determined as 1.0.

With `C=C(C)C1CCC(C)CC1O` (centres unmarked) [Natural Isopulegol, isopulegol], the “Bitterness Relative to 100 ppm Menthol” value was found to be 0.8 and the “Cooling Relative to 100 ppm Menthol” value is given as 0.7.

In the case of `CC1CCC(C(C)C)C(OC(=O)C(C)O)C1` (centres unmarked) [Natural Menthyl Lactate, menthyl lactate], the “Bitterness Relative to 100 ppm Menthol” value is 1.7 and the “Cooling Relative to 100 ppm Menthol” value turned out to be 1.1.

For `CC1CCC(C(C)C)C(OC(=O)CCC(=O)O)C1` (centres unmarked) [Natural Menthyl Succinate, mono-menthyl succinate], the “Bitterness Relative to 100 ppm Menthol” value came to 0.8 and the “Cooling Relative to 100 ppm Menthol” value is 0.6.

These data come from patent publication US11382347B2, “Natural cooling formulations” (WM. WRIGLEY JR. COMPANY, priority 2015, dated 2022).
